Broadly, the GI50 is the concentration at which growth is held to half of that of the control. A high value points to lower sensitivity of the cells. The IC50 is the concentration that gives 50% inhibition.

Read-outs that look alike come from different tables or passages of the source. Bridge positions count the residues as written; N and C are the ends. Square brackets hold non-standard residues; d marks the D form. Peptide text beside a SMILES is read from it. * marks the point of attachment. Benzoyl(4-dodecyloxy) = CCCCCCCCCCCCOc1ccc(C(=O)*)cc1; Lauroyl = CCCCCCCCCCCC(=O)*; Octanoyl = CCCCCCCC(=O)*; Dab = NCC[C@H](N)C(=O)O; Dodecyl = CCCCCCCCCCCC* Bounds are passed on as bounds.

The values below come from US8716242B2, “β-hairpin peptidomimetics” (priority 2009, dated 2014).

The test system of data set [1] is intracranial glioblastoma and medulloblastoma xenografts. The note with it: systemic administration; cited from earlier work.
A short description of data set [2]: Plasma stability in mouse plasma. The note with it: mouse plasma, 37° C.; for remaining at 24 h, 10 μM: 1440 min, read-out: mouse pl. cpd left at 1440 min; for half-life at 10 μM / mouse pl. T1/2: up to 1440 min; for half-life at 10 μM: read-out: mouse pl. T1/2. In kind it is in vitro ADME. Put shortly:
(§1)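 Peptides (1 mM DMSO/H2O stock) were spiked into human or mouse plasma in triplicate and incubated at 37 °C, sampling from 0 to 1440 min. Samples were quenched in formic acid/acetonitrile and analysed by LC/MS MRM. Remaining percent of t=0 was calculated and T1/2 derived by trend fitting.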

A short description of data set [3]: Plasma stability in human plasma. In kind it is in vitro ADME. The note with it: human plasma, 37° C.; for remaining at 24 h, 10 μM: 1440 min, read-out: human pl. cpd left at 1440 min. Put shortly:
as §1

For data set [4], the system named is human red blood cells (hRBC). Put plainly: Hemolysis of human red blood cells. The format is cell-based. Conditions: 20% hRBC, 1 h, 37° C. A digest of the protocol:
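Washed fresh human erythrocytes (20% v/v, ~0.9×10^9 cells/mL final) incubated with compound at 100 μM for 1 h at 37 °C with shaking. Supernatant OD540 read; % hemolysis expressed relative to 2.5% Triton X-100 lysis (100%), with PBS/0.001% acetic acid as 0%.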

A short description of data set [5]: Cytotoxicity, MTT reduction assay, HELA cells. The format is cell-based. The note with it: human, HELA cells (Acc57), 12.5-50 μM. A digest of the protocol:
(§2)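 HELA (4000/well) and COS-7 (3400/well) cells were grown 24 h, then exposed 48 h at 37° C to peptides at 12.5, 25 and 50 μM in triplicate. MTT reduction read at 595 nm; growth % relative to time-zero, and GI50 interpolated by trend line.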
A general note: Tetrazolium assays rely on reduction of a dye to a coloured formazan, in cell work by metabolically active cells.

In data set [6] the target is T1, human CXCR4 (Homo sapiens, UniProt P61073).
T1 construct: expressed in transfected cells; host or cells: mouse pre-B cell line 300-19
T1 sequence (P61073 whole entry): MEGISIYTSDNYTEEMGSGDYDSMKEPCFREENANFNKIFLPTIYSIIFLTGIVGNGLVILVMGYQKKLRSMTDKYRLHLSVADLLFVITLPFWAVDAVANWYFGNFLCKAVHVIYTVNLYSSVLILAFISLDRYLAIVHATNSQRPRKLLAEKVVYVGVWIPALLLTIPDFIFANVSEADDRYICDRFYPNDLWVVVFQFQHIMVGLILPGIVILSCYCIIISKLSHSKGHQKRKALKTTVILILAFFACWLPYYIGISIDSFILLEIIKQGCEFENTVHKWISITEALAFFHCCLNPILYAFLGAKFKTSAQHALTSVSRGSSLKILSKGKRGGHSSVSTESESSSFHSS
Put plainly: Ca2+-assay: CXCR4-antagonizing activity (SDF-1 induced calcium mobilization). The format is cell-based. Put shortly:
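Mouse pre-B 300-19 cells stably expressing human CXCR4, loaded with Calcium 4 dye in HBSS/20 mM HEPES pH 7.4/0.1% BSA for 1 h at RT. Peptides added before SDF-1; fluorescence (ex 485/em 525 nm) followed for 90 s. IC50 from four-parameter logistic fit of % maximal SDF-1 response.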

The nature of data set [7]: Cytotoxicity, MTT reduction assay, COS-7 cells. The format is cell-based. Conditions: African green monkey, COS-7 cells (CRL-1651), 12.5-50 μM. A digest of the protocol:
as §2

The mark [8] stands for this setting: mouse pre-B cell line 300-19 transfected with human CXCR4, SDF-1 induced Ca2+ mobilization, read-out: IC50% [nM] ± SD, CXCR4 receptor.

Take `c1cc(CN2CCCNCCNCCCNCC2)ccc1CN1CCCNCCNCCCNCC1` [AMD3100]: the “growth of intracranial glioblastoma and medulloblastoma xenografts” value in data set [1] is “inhibits growth”.

Turning to `CCCCCCCCCCCCOc1ccc(C(=O)NCCCC[C@@H]2NC(=O)[C@H](Cc3ccc(O)cc3)NC(=O)[C@@H]3CSSC[C@H](NC(=O)[C@H](Cc4ccc(O)cc4)NC(=O)[C@H](Cc4c[nH]cn4)NC(=O)[C@H](Cc4ccc(O)cc4)NC(=O)[C@@H]4CCCN4C(=O)[C@H]4CCCN4C(=O)[C@H](CCCCN)NC2=O)C(=O)N[C@@H](CO)C(=O)N[C@@H](C)C(=O)N2CCC[C@@H]2C(=O)N[C@@H](CCN)C(=O)N[C@@H](CCCNC(=N)N)C(=O)N[C@@H](Cc2ccc(O)cc2)C(=O)N3)cc1` [Ex. 24] (cyclo(YHYCSA[dP][Dab]RYCYK(Benzoyl(4-dodecyloxy))K[dP]P); disulfide 4-11), the results for the remaining at 24 h, 10 μM in data set [2] and in data set [3] were 22% and 24%, respectively. The half-life at 10 μM in data set [2] was determined as 9.27 h; in data set [3] (up to 1440 min, read-out: human pl. T1/2) it was 2.12 h. For the same molecule, the “Hemolysis at 100 μM” value in data set [4] was found to be 10.9%. For the same molecule, the GI50 at 48 h in data set [5] was more than 29 µM; in data set [7], more than 50 µM. Also, the IC50 in data set [6] was 6.1 ± 4.5 nM.

Take `CCCCCCCC(=O)NCCCC[C@@H]1NC(=O)[C@H](Cc2ccc(O)cc2)NC(=O)[C@@H]2CSSC[C@H](NC(=O)[C@H](Cc3ccc(O)cc3)NC(=O)[C@H](Cc3c[nH]cn3)NC(=O)[C@H](Cc3ccc(O)cc3)NC(=O)[C@@H]3CCCN3C(=O)[C@H]3CCCN3C(=O)[C@H](CCCCN)NC1=O)C(=O)N[C@@H](CO)C(=O)N[C@@H](C)C(=O)N1CCC[C@@H]1C(=O)N[C@@H](CCN)C(=O)N[C@@H](CCCNC(=N)N)C(=O)N[C@@H](Cc1ccc(O)cc1)C(=O)N2` [Ex. 12] (cyclo(YHYCSA[dP][Dab]RYCYK(Octanoyl)K[dP]P); disulfide 4-11): the remaining at 24 h, 10 μM in data set [2] was found to be 46%; in data set [3], 88%. Further, the half-life at 10 μM in data set [2] is 7 h. The “human pl. T1/2” value in data set [3] (up to 1440 min) amounted to 24 h. Further, the “Hemolysis at 100 μM” value in data set [4] was found to be 0.2%. For the same molecule, the GI50 at 48 h in data set [5] and in data set [7] was more than 50 µM each time. In addition, the IC50 in data set [6] (setting [8]) worked out at 1.8 ± 1 nM.

As to `CCCCCCCCCCCC(=O)NCC[C@@H]1NC(=O)[C@H](Cc2ccc(O)cc2)NC(=O)[C@@H]2CCCN2C(=O)[C@H]2CCCN2C(=O)[C@H](CCCCN)NC(=O)[C@H](CCC(N)=O)NC(=O)[C@H](Cc2ccc(O)cc2)NC(=O)[C@@H]2CSSC[C@H](NC(=O)[C@H](C)NC1=O)C(=O)N[C@@H](CCCNC(=N)N)C(=O)N[C@@H](C)C(=O)N1CCC[C@@H]1C(=O)N[C@@H](CCN)C(=O)N[C@@H](CCCNC(=N)N)C(=O)N[C@@H](Cc1ccc(O)cc1)C(=O)N2` [Ex. 1] (cyclo(Y[Dab](Lauroyl)ACRA[dP][Dab]RYCYQK[dP]P); disulfide 4-11), the remaining at 24 h, 10 μM in data set [2] came out at 77%; in data set [3], 87%. In addition, the “mouse pl. T1/2” value in data set [2] was determined as 24 h. The “human pl. T1/2” value in data set [3] (up to 1440 min) amounted to 24 h. For the same molecule, the “Hemolysis at 100 μM” value in data set [4] is 2.6%. Moreover, the GI50 at 48 h is more than 28 µM in data set [5] and more than 50 µM in data set [7]. In addition, in data set [6] (setting [8]), the half-maximal inhibitory concentration (IC50) was 94 ± 2.1 nM.

As to `CCCCCCCCCCCCOc1ccc(C[C@@H]2NC(=O)[C@H](CCCNC(=N)N)NC(=O)[C@H](CCN)NC(=O)[C@H]3CCCN3C(=O)[C@H](C)NC(=O)[C@H](CCCNC(=N)N)NC(=O)[C@@H]3CSSC[C@H](NC2=O)C(=O)N[C@@H](Cc2ccc(O)cc2)C(=O)N[C@@H](CCC(N)=O)C(=O)N[C@@H](CCCCN)C(=O)N2CCC[C@@H]2C(=O)N2CCC[C@H]2C(=O)N[C@@H](Cc2ccc(O)cc2)C(=O)N[C@@H](Cc2c[nH]cn2)C(=O)N[C@@H](C)C(=O)N3)cc1` [Ex. 7] (cyclo(YHACRA[dP][Dab]RY(Dodecyl)CYQK[dP]P); disulfide 4-11), the remaining at 24 h, 10 μM stood at 87% in data set [2] and 67% in data set [3]. Moreover, the “mouse pl. T1/2” value in data set [2] came to 24 h. Moreover, the “human pl. T1/2” value in data set [3] (up to 1440 min) turned out to be 24 h. Besides, the “Hemolysis at 100 μM” value in data set [4] turned out to be 11.5%. For the same molecule, the GI50 at 48 h was more than 35 µM in data set [5] and more than 50 µM in data set [7]. Also, the half-maximal inhibitory concentration (IC50) in data set [6] was determined as 59.8 ± 27 nM.

With `CCCCCCCC(=O)NCCCC[C@@H]1NC(=O)[C@H](Cc2ccc(O)cc2)NC(=O)[C@@H]2CSSC[C@H](NC(=O)[C@H](Cc3ccc(O)cc3)NC(=O)[C@H](Cc3c[nH]cn3)NC(=O)[C@H](Cc3ccc(O)cc3)NC(=O)[C@@H]3CCCN3C(=O)[C@@H](Cc3ccc(O)cc3)NC(=O)[C@H](CCCCN)NC1=O)C(=O)N[C@@H](CO)C(=O)N[C@@H](C)C(=O)N1CCC[C@@H]1C(=O)N[C@@H](CCN)C(=O)N[C@@H](CCCNC(=N)N)C(=O)N[C@@H](Cc1ccc(O)cc1)C(=O)N2` [Ex. 13] (cyclo(A[dP][Dab]RYCYK(Octanoyl)K[dY]PYHYCS); disulfide 6-15), the values for the remaining at 24 h, 10 μM in data set [2] and in data set [3] were 72% and 100%, respectively. Moreover, in data set [2], the half-life at 10 μM is 22.4 h. For the same molecule, in data set [3] (up to 1440 min), the “human pl. T1/2” value came out at 24 h. Further, the “Hemolysis at 100 μM” value in data set [4] came out at 1.2%. Moreover, the concentration for 50% growth inhibition (GI50) at 48 h in data set [5] and in data set [7] was more than 50 µM throughout. In data set [6] (setting [8]), the half-inhibitory concentration (IC50) came to 6.3 ± 2.7 nM.
